Laboratory results from patent US20250073249A1, “STEROID COMPOUND, AND PREPARATION METHOD THEREFOR AND USE THEREOF” (SHANGHAI INSTITUTE OF MATERIA MEDICA, CHINESE ACADEMY OF …, priority 2022, published 2025).
Where two headings read alike, the source gives them in different places.

Tests used:
[1] = In vivo pharmacokinetics in rats after oral gavage; conditions: male SD rats, PO 10 mg/kg
Procedure: Male SD rats were randomly divided into 6 groups, 3 rats per group. The rats were fasted but not water-deprived for 12-14 h one day before dosing. The test samples were then dissolved in a solvent of 5% DMSO+30% PEG400+65% (0.5% MC) and administered by gavage at 10 mg/kg. Food was provided 4 h after dosing. Blood samples (0.10 mL) were collected via the orbital sinus at 0, 15, 30 min, 1, 2, 4, 6, 8, and 24 h, with EDTA-K2 as anticoagulant. Blood samples were placed on ice after collection and centrifuged to separate plasma within 30 minutes (centrifugation conditions: 5000 rpm, 10 minutes, 4° C.). 50.0 μL of plasma sample (taken from −80° C. freezer, thawed naturally at room temperature and vortexed for 30 seconds) was added to a 1.5 mL centrifuge tube, followed by addition of 500 μL internal standard solution (methanol (TEDIA, HPLC grade), acetonitrile (TEDIA, HPLC grade), formic acid (FA, ACROS ORGANICS, HPLC grade), water was laboratory-made ultrapure water (100.0 ng·mL−1)). The mixture was vortexed for 60 seconds and centrifuged for 3 minutes (centrifugal force 12000 rpm). 100 μL of the supernatant was transferred to a 96-well injection plate containing an equal volume of water, mixed by shaking, and analyzed by LC-MS/MS with an injection volume of 10 μL. The data acquisition and control system software was Analyst 1.5.1 software (Applied Biosystem). The chromatographic sample peaks were integrated automatically. The ratio of sample peak area to internal standard peak area was used as an indicator for regression with sample concentration.
The pharmacokinetic parameters of representative compounds of the present invention were tested in male SD rats after oral gavage administration at 10 mg/kg according to the above conventional method to examine the pharmacokinetic characteristics of the compounds of the present invention in rats.

TMPRSS2 = TMPRSS2 mRNA expression in A549 cells (qPCR); assay type: cell-based
ACE2 = ACE2 mRNA expression in A549 cells (qPCR); assay type: cell-based
[2] = 10 μM, 1 nM DHT, 48 h, Blank = 1

## Cc1cn(C2=CCC3C4CC=C5C[C@@H](NC(=O)c6ccncc6)CC[C@]5(C)C4CC[C@]23C)cn1 (stereo partly drawn) [Compound 14, N-((3S,10R,13S)-10,13-dimethyl-17-(4-methyl-1H-imidazol-1-yl)-2,3,4,7,8,9,10,11,12,13,14,15-dodecahydro-1H-cyclopenta[a]phenanthren-3-yl)isonicotinamide]
[1]
  Cmax: 2670 ng/mL
  Kel: 0.252 h⁻¹
  MRTPO: 5.12 h
  T1/2: 2.80 h
  tmax: 2.17 h
[1]; rat, plasma
  AUC(0-inf): 24800 ng·h/mL
  AUC(0-t): 24800 ng·h/mL

## Cc1cn(C2=CCC3C4CC=C5C[C@@H](NC(=O)c6ccc(F)cc6)CC[C@]5(C)C4CC[C@]23C)cn1 (stereo partly drawn) [Compound 33, N-((3S,10R,13S)-17-(4-methyl-1H-imidazol-1-yl)-10,13-dimethyl-2,3,4,7,8,9,10,11,12,13,14,15-dodecahydro-1H-cyclopenta[a]phenanthren-3-yl)-4-fluorobenzamide]
[1]
  Cmax: 6431 ng/mL
  Kel: 0.214 h⁻¹
  MRTPO: 6.03 h
  T1/2: 3.28 h
  tmax: 4.00 h
[1]; rat, plasma
  AUC(0-inf): 69500 ng·h/mL
  AUC(0-t): 68900 ng·h/mL

## Cc1cn(C2=CCC3C4CC=C5C[C@@H](NC(=O)c6ccc(S(C)(=O)=O)cc6)CC[C@]5(C)C4CC[C@]23C)cn1 (stereo partly drawn) [Compound 35, N-((3S,10R,13S)-17-(4-methyl-1H-imidazol-1-yl)-10,13-dimethyl-2,3,4,7,8,9,10,11,12,13,14,15-dodecahydro-1H-cyclopenta[a]phenanthren-3-yl)-4-(methylsulfonyl)benzamide]
TMPRSS2
  Expression of TMPRSS2 protein, in words: significantly downregulate
TMPRSS2; [2]
  TMPRSS2 mRNA level: 0.394
ACE2
  Expression of ACE2 protein, in words: significantly downregulate
ACE2; [2]
  ACE2 mRNA level: 0.102

## Cc1cn(C2=CCC3C4CC=C5C[C@@H](NC(=O)c6ccc(F)cc6F)CC[C@]5(C)C4CC[C@]23C)cn1 (stereo partly drawn) [Compound 37, N-((3S,10R,13S)-17-(4-methyl-1H-imidazol-1-yl)-10,13-dimethyl-2,3,4,7,8,9,10,11,12,13,14,15-dodecahydro-1H-cyclopenta[a]phenanthren-3-yl)-2,4-difluorobenzamide]
[1]
  Kel: 0.124 h⁻¹
  MRTPO: 10.0 h
  T1/2: 6.02 h
  tmax: 6.00 h
[1]; rat, plasma
  AUC(0-inf): 24500 ng·h/mL
  AUC(0-t): 22500 ng·h/mL
[1]; rat, plasma, read-out: Cmax
  Cmax: 1550 ng/mL
